Like-named read-outs stand apart in the source and are kept apart here.

What all share (type): cell-based
For test [1], the system named is PRMT5 (SDMA) in HAP1 MTAP-intact cell line. The test can be described thus: SDMA in-cell western assay, HAP1 MTAP-intact cell line. To be noted: Homo sapiens, HAP1 MTAP-intact cell line (endogenous MTAP), read-out: Hap 1 MTAP intact IC50. The source says: (§1) HAP1 MTAP-intact is a cell line in which endogenous levels of MTAP are expressed, and HAP1 MTAP-deleted is an MTAP-null cell line.

The test system of test [2] is HAP1 MTAP-deleted cell line. Put plainly: viability assay for the MTAP-deleted cell line.
Test [3] deals with PRMT5 (SDMA) in HAP1 MTAP-deleted cell line. The test can be described thus: SDMA in-cell western assay, HAP1 MTAP-deleted cell line. Conditions: for IC50 / IC90: Homo sapiens, SDMA in-cell western, HAP1 MTAP-deleted (MTAP-null) cell line; for Hap1 MTAP intact/deleted ratio: ratio of SDMA in-cell western IC50 in HAP1 MTAP-intact to IC50 in HAP1 MTAP-deleted cell line.
Source text: as §1

In general, IC50 refers to the midpoint of a concentration-inhibition curve. The term IC90 denotes the concentration needed for an effect of 90%. Read a high IC90 as a need for much substance. As to `CCc1cc(NC(=O)C(=O)N2C[C@@H](C)OC[C@@H]2c2ccc3sc(C4CCN(C)CC4)nc3c2)cnc1N` [Compound 96], the IC50 in test [1] is above 50 nM. The same compound displayed a half-maximal inhibitory concentration (IC50) in test [2] (Homo sapiens) below 100 nM. In test [3], the IC50 fell in the range of 5 to 50 nM, the IC90 is 75 to 125 nM and the “Hap1 MTAP intact/deleted ratio” value is on record as “B (an IC50 ratio greater than or equal to 15 fold but lower than 30 fold)”.

For the compound `Cc1cc(NC(=O)C(=O)N2C[C@@H](C)N(C(=O)C3(C(F)(F)F)CC3)C[C@@H]2c2ccc(Cl)c(Cl)c2)cnc1N` [Compound 119, N-(6-amino-5-methylpyridin-3-yl)-2-((2S,5R)-2-(3,4-dichlorophenyl)-5-methyl-4-(1-(trifluoromethyl)cyclopropanecarbonyl)piperazin-1-yl)-2-oxoacetamide], the IC50 in test [1] was above 50 nM. Further, in test [2] (Homo sapiens), the IC50 was below 100 nM. Moreover, in test [3], the IC50 was 5 to 50 nM, the IC90 is 75 to 125 nM and the “Hap1 MTAP intact/deleted ratio” value was “C (an IC50 ratio of less than 15 fold)”.

`C[C@@H]1CN(C(=O)C(=O)Nc2cnc(N)c3c2cnn3C)[C@@H](c2ccccc2)CN1C(=O)C1(C(F)(F)F)CC1` [Compound 166, N-(7-Amino-1-methyl-pyrazolo[3,4-c]pyridin-4-yl)-2-oxo-2-[(2S,5R)-5-methyl-2-phenyl-4-[1-(trifluoromethyl)cyclopropanecarbonyl]piperazin-1-yl]acetamide] gave an IC50 in test [2] (Homo sapiens) below 100 nM.

The compound `Cc1cc(NC(=O)C(=O)N2C[C@@H](C)N(C(=O)C3(C)CC3)C[C@@H]2c2ccc(F)cc2)cnc1N` [Compound 104, N-(6-amino-5-methylpyridin-3-yl)-2-((2S,5R)-2-(4-fluorophenyl)-5-methyl-4-(1-methylcyclopropanecarbonyl)piperazin-1-yl)-2-oxoacetamide] yielded a half-maximal inhibitory concentration (IC50) in test [2] (Homo sapiens) below 100 nM.

In turn, `C[C@@H]1CN(C(=O)C(=O)Nc2cnc(N)c3cn[nH]c23)[C@@H](c2ccccc2)CN1C(=O)C1(C)CC1` (racemic) [Compound 161, N-(4-Amino-1H-pyrazolo[4,3-c]pyridin-7-yl)-2-oxo-2-[rac-(2S,5R)-5-methyl-4-(1-methylcyclopropanecarbonyl)-2-phenyl-piperazin-1-yl]acetamide] had an IC50 in test [2] (Homo sapiens) below 100 nM.

For the compound `Cc1cc(NC(=O)C(=O)N2C[C@@H](C)N(C(=O)C3(C)CC3)C[C@@H]2c2ccc(F)cc2)cnc1N` (stereo in doubt) [Compound 108, N-(6-amino-5-methylpyridin-3-yl)-2-(2-(4-fluorophenyl)-5-methyl-4-(1-methylcyclopropanecarbonyl)piperazin-1-yl)-2-oxoacetamide], the IC50 in test [2] was below 100 nM.

In test [2] (Homo sapiens), `CC(C)CN1C[C@@H](c2ccc(F)cc2)N(C(=O)C(=O)Nc2cnc(N)c(C3CC3)c2)C[C@@H]1C` (single isomer, unassigned) [Compound 26] yielded an IC50 above 1000 nM.

As to `Cc1cc(NC(=O)C(=O)N2C[C@@H](C)N(C(=O)C(C)(C)C)C[C@@H]2c2ccc(F)cc2)cnc1N` (stereo in doubt) [Compound 106, N-(6-amino-5-methylpyridin-3-yl)-2-(2-(4-fluorophenyl)-5-methyl-4-pivaloylpiperazin-1-yl)-2-oxoacetamide], the IC50 in test [2] was below 100 nM.

For `Cc1cc(NC(=O)C(=O)N2C[C@@H](C)N(C(=O)C(C)(C)C)C[C@@H]2c2ccc(F)cc2)cnc1N` [Compound 3, N-(6-amino-5-methylpyridin-3-yl)-2-((2S,5R)-2-(4-fluorophenyl)-5-methyl-4-pivaloylpiperazin-1-yl)-2-oxoacetamide], in test [2] (Homo sapiens), the IC50 is below 100 nM.

As to `C[C@@H]1CN(C(=O)C(=O)Nc2cnc(N)c(C3CC3)c2)[C@@H](c2ccc3scnc3c2)CN1C(=O)C1(C(F)(F)F)CC1` [Compound 141, N-(6-amino-5-cyclopropyl-3-pyridyl)-2-[(2S,5R)-2-(1,3-benzothiazol-5-yl)-5-methyl-4-[1-(trifluoromethyl)cyclopropanecarbonyl]piperazin-1-yl]-2-oxo-acetamide], the IC50 in test [2] (Homo sapiens) is below 100 nM.

For the compound `COc1ncc(NC(=O)C(=O)N2C[C@H](C)N(C(=O)C3(C)CC3)C[C@H]2c2ccc(F)cc2)cc1C(N)=O` [Compound 5, 5-(2-((2R,5S)-2-(4-fluorophenyl)-5-methyl-4-(1-methylcyclopropanecarbonyl)piperazin-1-yl)-2-oxoacetamido)-2-methoxynicotinamide], the 50% inhibitory concentration (IC50) in test [2] (Homo sapiens) lay within 100 to 1000 nM.

For the compound `C[C@@H]1CN(C(=O)C(=O)Nc2cncc3[nH]ncc23)C(c2ccc(F)cc2)CN1C(=O)C(C)(C)C` (stereo in doubt) [Compound 103, 2-[(2S,5R)-4-(2,2-dimethylpropanoyl)-2-(4-fluorophenyl)-5-methyl-piperazin-1-yl]-2-oxo-N-(1H-pyrazolo[3,4-c]pyridin-4-yl)acetamide], in test [2] (Homo sapiens), the IC50 was above 1000 nM.

In test [2] (Homo sapiens), `Cc1cc(NC(=O)C(=O)N2C[C@H](C)N(C(=O)C3(C(F)(F)F)CC3)C[C@H]2c2ccc(F)cc2)cnc1N` [Compound 64] showed an IC50 above 1000 nM.

The compound `CC(C)OC(=O)N1C[C@H](c2ccc(F)cc2)N(C(=O)C(=O)Nc2cnc(N)c(C3CC3)c2)C[C@@H]1C` (stereo in doubt) [Compound 95, isopropyl 4-(2-((6-amino-5-cyclopropylpyridin-3-yl)amino)-2-oxoacetyl)-5-(4-fluorophenyl)-2-methylpiperazine-1-carboxylate] had a half-inhibitory concentration (IC50) in test [2] (Homo sapiens) above 1000 nM.

Turning to `Cc1cc(NC(=O)C(=O)N2C[C@@H](C)N(C(=O)C(C)C)C[C@@H]2c2ccc(F)cc2)cnc1N` (relative stereo) [Compound 20, N-(6-amino-5-methyl-3-pyridyl)-2-[(2S,5R)-2-(4-fluorophenyl)-5-methyl-4-(2-methylpropanoyl)piperazin-1-yl]-2-oxo-acetamide], the IC50 in test [2] (Homo sapiens) was 100 to 1000 nM.

`C[C@@H]1CN(C(=O)C(=O)Nc2cnc(N)c3cn[nH]c23)[C@@H](c2ccccc2)CN1C(=O)C1(C(F)(F)F)CC1` [Compound 155] displayed a half-maximal inhibitory concentration (IC50) in test [2] (Homo sapiens) below 100 nM.

In test [2] (Homo sapiens), `Cc1cc(NC(=O)C(=O)N2C[C@@H](C)N(C(=O)C3(C(F)(F)F)CC3)C[C@@H]2c2ccc(F)cc2)cnc1N` [Compound 27] showed a concentration for half-maximal inhibition (IC50) below 100 nM.

For `Cc1cc(NC(=O)C(=O)N2CC(C)N(C(=O)C(C)C)C[C@@H]2c2ccc(F)c(F)c2)cnc1N` (stereo in doubt) [Compound 23, N-(6-amino-5-methylpyridin-3-yl)-2-((2S,5R)-2-(3,4-difluorophenyl)-4-isobutyryl-5-methylpiperazin-1-yl)-2-oxoacetamide], the half-inhibitory concentration (IC50) in test [2] (Homo sapiens) was above 1000 nM.

Turning to `CC(C)C(=O)N1C[C@H](c2ccc(F)cc2)N(C(=O)C(=O)Nc2cnc(N)c(C3CC3)c2)C[C@H]1C` [Compound 19], in test [3], the “Hap1 MTAP intact/deleted ratio” value is recorded as “C (an IC50 ratio of less than 15 fold)”.

`C[C@@H]1CN(C(=O)C(=O)Nc2cnc(N)c(C3CC3)c2)[C@@H](c2ccccc2)CN1C(=O)C1(C(F)(F)F)CC1` [Compound 51, N-(6-amino-5-cyclopropylpyridin-3-yl)-2-((2S,5R)-5-methyl-2-phenyl-4-(1-(trifluoromethyl)cyclopropanecarbonyl)piperazin-1-yl)-2-oxoacetamide] displayed a 50% inhibitory concentration (IC50) in test [2] (Homo sapiens) below 100 nM.

Take `Cc1cc(NC(=O)C(=O)N2C[C@@H](C)N(C(=O)C(C)C)C[C@@H]2c2ccc(F)cc2)cnc1N` (racemic) [Compound 157, rac-N-(6-amino-5-methylpyridin-3-yl)-2-(2-(4-fluorophenyl)-4-isobutyryl-5-methylpiperazin-1-yl)-2-oxoacetamide]: the IC50 in test [2] (Homo sapiens) lay within 100 to 1000 nM.

Take `CC(C)C(=O)N1C[C@H](c2ccccc2)N(C(=O)C(=O)Nc2cnc(N)c3c2cnn3C)C[C@H]1C` [Compound 165, N-(7-Amino-1-methyl-pyrazolo[3,4-c]pyridin-4-yl)-2-oxo-2-[(2S,5R)-5-methyl-4-(2-methylpropanoyl)-2-phenyl-piperazin-1-yl]acetamide]: the IC50 in test [2] (Homo sapiens) is below 100 nM.

For the compound `CC(C)CN1C[C@H](c2ccc(F)cc2)N(C(=O)C(=O)Nc2cnc(N)c(C3CC3)c2)C[C@@H]1C` (single isomer, unassigned) [Compound 48], the 50% inhibitory concentration (IC50) in test [2] (Homo sapiens) is above 1000 nM.

In test [2] (Homo sapiens), `C[C@@H]1CN(C(=O)C(=O)Nc2cnc(N)c(C3CC3)c2)[C@H](c2ccc(F)cc2)CN1C(=O)CC1CC1` [Compound 136] came in with an IC50 above 1000 nM.

On to `CC(=O)N1C[C@H](c2ccccc2)N(C(=O)C(=O)Nc2cnc(N)c3c2cnn3C)C[C@H]1C` [Compound 168, N-(7-Amino-1-methyl-pyrazolo[3,4-c]pyridin-4-yl)-2-oxo-2-[(2S,5R)-4-acetyl-5-methyl-2-phenyl-piperazin-1-yl]acetamide], for which the IC50 in test [2] (Homo sapiens) is below 100 nM.

As to `COc1ncc(NC(=O)C(=O)N2C[C@@H](C)N(C(=O)C3(C)CC3)C[C@@H]2c2ccc(F)cc2)cc1C(N)=O` [Compound 102, 5-(2-((2S,5R)-2-(4-fluorophenyl)-5-methyl-4-(1-methylcyclopropanecarbonyl)piperazin-1-yl)-2-oxoacetamido)-2-methoxynicotinamide], the IC50 in test [2] (Homo sapiens) is above 1000 nM.

`C[C@H]1CN(C(=O)C(=O)Nc2cnc(N)c(C3CC3)c2)[C@@H](c2ccc(F)cc2)CN1C(=O)CC1CC1` [Compound 56] registered an IC50 in test [2] (Homo sapiens) above 1000 nM.

`C[C@@H]1CN(C(=O)C(=O)Nc2cnc(N)c3cn[nH]c23)[C@@H](c2ccccc2)CN1C(=O)C(C)(C)C` [Compound 124, N-(4-amino-1H-pyrazolo[4,3-c]pyridin-7-yl)-2-((2S,5R)-5-methyl-2-phenyl-4-pivaloylpiperazin-1-yl)-2-oxoacetamide]: the IC50 in test [2] (Homo sapiens) was below 100 nM.

`CC(C)OC(=O)N1C[C@@H](c2ccc(F)cc2)N(C(=O)C(=O)Nc2cnc(N)c(C3CC3)c2)C[C@H]1C` (stereo in doubt) [Compound 82, isopropyl 4-(2-((6-amino-5-cyclopropylpyridin-3-yl)amino)-2-oxoacetyl)-5-(4-fluorophenyl)-2-methylpiperazine-1-carboxylate] displayed a half-inhibitory concentration (IC50) in test [2] (Homo sapiens) above 1000 nM.

In test [2] (Homo sapiens), `CC(C)C(=O)N1C[C@H](c2ccccc2)N(C(=O)C(=O)Nc2cnc(N)c3cn[nH]c23)C[C@H]1C` [Compound 50] had an IC50 below 100 nM.

Values taken from patent US20250282749A1 (Tango Therapeutics, Inc., priority 2022, published 2025).
